Test results: ChEMBL document CHEMBL5608207, “Development of narrow-spectrum topoisomerase-targeting antibacterials against mycobacteria” (Eur J Med Chem, 2024)
Values after ≈ are worked out from the molar mass of the structure shown. Active and inactive are the calls of the source. The rule behind the calls is not given here.

What was measured:
[1] = test system: Mycobacteroides abscessus; test: Antimycobacterial activity against Mycobacterium abscessus RIVM incubated for 1 day by resazurin reduction microplate assay; assay type: functional; conditions: 24 h
[2] = test system: Mycolicibacterium smegmatis; test: Antimycobacterial activity against Mycobacterium smegmatis MC2 incubated for 2 days by resazurin reduction microplate assay; assay type: functional; conditions: MC2, 48 h, time 2 day
[3] = test system: Staphylococcus aureus; test: Antibacterial activity against Staphylococcus aureus ATCC 29213 incubated for 18 hrs by serial broth microdilution method; assay type: functional
[4] = test system: Mycobacterium tuberculosis; test: Antimycobacterial activity against Mycobacterium tuberculosis H37Rv ATCC 25618 assessed as reduction in viability incubated for 6 days by resazurin reduction microplate assay; assay type: functional; conditions: H37Rv ATCC 25618, 144 h, time 6 day
[5] = test system: Mycobacterium tuberculosis; test: Antimycobacterial activity against Mycobacterium tuberculosis H37Rv ATCC 25618 assessed as reduction in viability at 5 uM incubated for 6 days by resazurin reduction microplate assay; assay type: functional; conditions: time 6.0 day
[6] = Inhibition of Mycobacterium tuberculosis DNA gyrase B
[7] = molecular target: DNA topoisomerase 2-alpha (Homo sapiens) (UniProt P11388); test: Inhibition of human DNA topoisomerase II alpha assessed as residual activity at 100 uM using supercoiled pNO1 plasmid as substrate incubated for 30 mins by diamond dye staining based fluorescence microplate reader assay relative to control
[8] = molecular target: DNA topoisomerase 2-alpha (Homo sapiens) (UniProt P11388); test: Inhibition of human DNA topoisomerase II alpha assessed as residual activity at 10 uM using supercoiled pNO1 plasmid as substrate incubated for 30 mins by diamond dye staining based fluorescence microplate reader assay relative to control
[9] = test system: Pseudomonas aeruginosa; test: Antibacterial activity against Pseudomonas aeruginosa ATCC 27853 incubated for 18 hrs by serial broth microdilution method; assay type: functional
[10] = test system: Escherichia coli; test: Antibacterial activity against Escherichia coli ATCC 25922 incubated for 18 hrs by serial broth microdilution method; assay type: functional
[11] = test system: Acinetobacter baumannii; test: Antibacterial activity against Acinetobacter baumannii ATCC17978 incubated for 18 hrs by serial broth microdilution method; assay type: functional
[12] = test system: Enterobacter cloacae; test: Antibacterial activity against Enterobacter cloacae ATCC13047 incubated for 18 hrs by serial broth microdilution method; assay type: functional
[13] = test system: Klebsiella pneumoniae; test: Antibacterial activity against Klebsiella pneumoniae ATCC10031 incubated for 18 hrs by serial broth microdilution method; assay type: functional
[14] = Acute toxicity in zebrafish embryo assessed as change in behavior upto 5 mM measured for 4 days; parameters: species or system Danio rerio; conditions: in vivo, 96 h, 5000 µM, time 4 day
[15] = test system: Mycobacterium tuberculosis; test: (§1) Antimycobacterial activity against GFP-expressing Mycobacterium tuberculosis H37Rv infected in PMA-treated THP-1 cells assessed as bacterial viability pre-infected for 3 hrs prior to gentamycin addition for 1 hr followed by washout and compound addition measured after 4 days by fluorescence microscopic analysis; assay type: functional, organism-based; conditions: dose 1-30 µM, time 4.0 day
[16] = test system: Anaerostipes hadrus; test: Antibacterial activity against Anaerostipes hadrus DSM 3319 measured at 15 mins interval for 24 hrs by broth microdilution method; assay type: functional
[17] = Protein binding in human plasma assessed as free fraction at 10 uM incubated for 4 hrs by rapid equilibrium dialysis based LC-MS/MS method; assay type: ADME, cell-free
[18] = Protein binding in mouse plasma assessed as free fraction at 10 uM incubated for 4 hrs by rapid equilibrium dialysis based LC-MS/MS method; assay type: ADME, cell-free
[19] = Acute toxicity in zebrafish embryo assessed as effect on embryo development upto 5 mM measured for 4 days; parameters: species or system Danio rerio; conditions: in vivo, 96 h, 5000 µM, time 4 day
[20] = test system: Bacteroides thetaiotaomicron; test: Antibacterial activity against Bacteroides thetaiotaomicron DSM 2079 measured at 15 mins interval for 24 hrs by broth microdilution method; assay type: functional
[21] = Acute toxicity in zebrafish embryo assessed as effect on embryo survival upto 5 mM measured for 4 days; parameters: species or system Danio rerio; conditions: in vivo, 96 h, 5000 µM, time 4 day
[22] = test system: Segatella copri; test: Antibacterial activity against Prevotella copri DSM 18205 measured at 15 mins interval for 24 hrs by broth microdilution method; assay type: functional
[23] = Kinetic solubility of compound in PBS at 100 uM incubated for 20 hrs in shaker by LC-MS/MS analysis; assay type: physicochemical; conditions: read-out: Kinetic_solubility
[24] = test system: Mycobacterium tuberculosis; test: as §1, with “increase in number of surviving macrophages at 1 to 30 uM” for “bacterial viability”; assay type: functional, organism-based; conditions: dose 1-30 µM, time 4.0 day
[25] = test system: Escherichia coli; test: Antibacterial activity against Escherichia coli ATCC 25922 harboring deltaTolC mutant incubated for 18 hrs by serial broth microdilution method; assay type: functional
[26] = test system: THP-1; test: Cytotoxicity against replicating human THP-1 cells upto 40 uM; assay type: toxicity, cell-based; conditions: thp-1, 40 µM
[27] = test system: THP-1; test: Cytotoxicity against human THP-1 cells assessed as reduction in viability at 40 uM pretreated with PMA for 48 hrs followed by washout and compound addition for 5 days by resazurin sodium salt method; assay type: toxicity, cell-based; conditions: thp-1, 120 h, time 5 day
[28] = molecular target: DNA gyrase (Escherichia coli, UniProt P0AES4+P0AES6); test: Inhibition of Escherichia coli DNA gyrase using relaxed pNO1 as substrate measured after 30 mins by SybrGOLD staining based fluorescence microplate reader analysis; assay type: protein-complex assay
[29] = test system: Mycobacterium tuberculosis; test: as §1, with “increase in number of surviving macrophages at 10 to 30 uM” for “bacterial viability”; assay type: functional, organism-based; conditions: dose 10-30 µM, time 4.0 day
[30] = Inhibition of Escherichia coli DNA topoisomerase IV […] using supercoiled pNO1 as substrate measured after 30 mins by SybrGOLD staining based fluorescence microplate reader analysis
[31] = molecular target: T1, hERG (KCNH2) (Homo sapiens, UniProt Q12809); test: Inhibition of human ERG expressed in HEK293 cells at 10 uM by whole-cell patch clamp method relative to control; assay type: toxicity, cell-based; conditions: HEK293 cells that express hERG
[32] = molecular target: T1, hERG (KCNH2); test: Inhibition of human ERG expressed in HEK293 cells at 50 uM by whole-cell patch clamp method relative to control; assay type: toxicity, cell-based; conditions: HEK293 cells that express hERG
[33] = Inhibition of Mycobacterium smegmatis DNA gyrase using […] DNA as substrate incubated for 30 mins by gel based method; parameters: species or system Mycolicibacterium smegmatis
[34] = test system: MCF7; test: Cytotoxicity against human MCF7 cells assessed as residual activity at 50 uM incubated for 72 hrs by MTS assay; assay type: functional
[35] = molecular target: DNA gyrase subunit A/DNA gyrase subunit B (Mycobacterium tuberculosis (strain ATCC 25618 / H37Rv), UniProt P9WG45+P9WG47); test: Inhibition of Mycobacterium tuberculosis DNA gyrase using […] DNA as substrate incubated for 30 mins by gel based method; assay type: protein-complex assay
Chain of DNA gyrase subunit A/DNA gyrase subunit B (P9WG45 whole entry): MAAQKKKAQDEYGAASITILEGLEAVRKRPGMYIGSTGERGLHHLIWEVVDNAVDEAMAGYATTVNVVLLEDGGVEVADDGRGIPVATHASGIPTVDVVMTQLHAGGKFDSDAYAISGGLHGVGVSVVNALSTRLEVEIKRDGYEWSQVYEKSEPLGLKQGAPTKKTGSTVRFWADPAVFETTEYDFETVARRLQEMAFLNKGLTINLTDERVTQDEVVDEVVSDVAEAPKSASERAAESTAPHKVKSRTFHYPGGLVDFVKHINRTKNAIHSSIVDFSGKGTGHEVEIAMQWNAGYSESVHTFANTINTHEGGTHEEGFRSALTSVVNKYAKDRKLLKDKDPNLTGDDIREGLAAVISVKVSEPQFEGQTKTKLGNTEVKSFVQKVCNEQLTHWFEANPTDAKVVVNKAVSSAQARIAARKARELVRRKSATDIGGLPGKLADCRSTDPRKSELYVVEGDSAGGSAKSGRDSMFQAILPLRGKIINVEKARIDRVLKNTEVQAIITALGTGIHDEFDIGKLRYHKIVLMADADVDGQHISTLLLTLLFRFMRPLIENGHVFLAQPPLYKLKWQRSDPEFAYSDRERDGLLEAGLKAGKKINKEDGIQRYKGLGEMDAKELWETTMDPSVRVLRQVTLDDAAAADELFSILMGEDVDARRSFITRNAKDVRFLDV
Chain of DNA gyrase subunit A/DNA gyrase subunit B (P9WG47 whole entry): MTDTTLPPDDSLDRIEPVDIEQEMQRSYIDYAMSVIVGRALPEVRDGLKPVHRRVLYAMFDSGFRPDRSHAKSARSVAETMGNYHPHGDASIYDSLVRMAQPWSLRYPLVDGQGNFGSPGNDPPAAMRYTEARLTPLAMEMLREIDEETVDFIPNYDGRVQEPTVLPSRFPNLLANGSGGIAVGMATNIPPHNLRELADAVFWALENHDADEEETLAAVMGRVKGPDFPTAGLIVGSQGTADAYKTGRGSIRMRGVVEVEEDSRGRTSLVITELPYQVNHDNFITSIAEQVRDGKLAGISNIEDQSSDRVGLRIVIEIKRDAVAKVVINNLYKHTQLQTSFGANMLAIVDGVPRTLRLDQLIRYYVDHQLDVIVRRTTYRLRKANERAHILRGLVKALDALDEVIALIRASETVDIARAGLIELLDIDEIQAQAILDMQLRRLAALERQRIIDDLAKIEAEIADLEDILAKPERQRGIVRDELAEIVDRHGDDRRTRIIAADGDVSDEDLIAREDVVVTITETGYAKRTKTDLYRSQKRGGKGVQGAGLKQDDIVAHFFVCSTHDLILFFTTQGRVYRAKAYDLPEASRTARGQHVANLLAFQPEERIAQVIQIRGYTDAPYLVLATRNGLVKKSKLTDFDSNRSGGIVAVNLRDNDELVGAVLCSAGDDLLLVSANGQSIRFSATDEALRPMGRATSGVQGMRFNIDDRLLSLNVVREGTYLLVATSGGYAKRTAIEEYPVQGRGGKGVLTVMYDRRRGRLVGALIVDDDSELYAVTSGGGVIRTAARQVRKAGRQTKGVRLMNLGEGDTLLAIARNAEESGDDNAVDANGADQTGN

Chain of DNA topoisomerase 2-alpha (Homo sapiens) (P11388 whole entry): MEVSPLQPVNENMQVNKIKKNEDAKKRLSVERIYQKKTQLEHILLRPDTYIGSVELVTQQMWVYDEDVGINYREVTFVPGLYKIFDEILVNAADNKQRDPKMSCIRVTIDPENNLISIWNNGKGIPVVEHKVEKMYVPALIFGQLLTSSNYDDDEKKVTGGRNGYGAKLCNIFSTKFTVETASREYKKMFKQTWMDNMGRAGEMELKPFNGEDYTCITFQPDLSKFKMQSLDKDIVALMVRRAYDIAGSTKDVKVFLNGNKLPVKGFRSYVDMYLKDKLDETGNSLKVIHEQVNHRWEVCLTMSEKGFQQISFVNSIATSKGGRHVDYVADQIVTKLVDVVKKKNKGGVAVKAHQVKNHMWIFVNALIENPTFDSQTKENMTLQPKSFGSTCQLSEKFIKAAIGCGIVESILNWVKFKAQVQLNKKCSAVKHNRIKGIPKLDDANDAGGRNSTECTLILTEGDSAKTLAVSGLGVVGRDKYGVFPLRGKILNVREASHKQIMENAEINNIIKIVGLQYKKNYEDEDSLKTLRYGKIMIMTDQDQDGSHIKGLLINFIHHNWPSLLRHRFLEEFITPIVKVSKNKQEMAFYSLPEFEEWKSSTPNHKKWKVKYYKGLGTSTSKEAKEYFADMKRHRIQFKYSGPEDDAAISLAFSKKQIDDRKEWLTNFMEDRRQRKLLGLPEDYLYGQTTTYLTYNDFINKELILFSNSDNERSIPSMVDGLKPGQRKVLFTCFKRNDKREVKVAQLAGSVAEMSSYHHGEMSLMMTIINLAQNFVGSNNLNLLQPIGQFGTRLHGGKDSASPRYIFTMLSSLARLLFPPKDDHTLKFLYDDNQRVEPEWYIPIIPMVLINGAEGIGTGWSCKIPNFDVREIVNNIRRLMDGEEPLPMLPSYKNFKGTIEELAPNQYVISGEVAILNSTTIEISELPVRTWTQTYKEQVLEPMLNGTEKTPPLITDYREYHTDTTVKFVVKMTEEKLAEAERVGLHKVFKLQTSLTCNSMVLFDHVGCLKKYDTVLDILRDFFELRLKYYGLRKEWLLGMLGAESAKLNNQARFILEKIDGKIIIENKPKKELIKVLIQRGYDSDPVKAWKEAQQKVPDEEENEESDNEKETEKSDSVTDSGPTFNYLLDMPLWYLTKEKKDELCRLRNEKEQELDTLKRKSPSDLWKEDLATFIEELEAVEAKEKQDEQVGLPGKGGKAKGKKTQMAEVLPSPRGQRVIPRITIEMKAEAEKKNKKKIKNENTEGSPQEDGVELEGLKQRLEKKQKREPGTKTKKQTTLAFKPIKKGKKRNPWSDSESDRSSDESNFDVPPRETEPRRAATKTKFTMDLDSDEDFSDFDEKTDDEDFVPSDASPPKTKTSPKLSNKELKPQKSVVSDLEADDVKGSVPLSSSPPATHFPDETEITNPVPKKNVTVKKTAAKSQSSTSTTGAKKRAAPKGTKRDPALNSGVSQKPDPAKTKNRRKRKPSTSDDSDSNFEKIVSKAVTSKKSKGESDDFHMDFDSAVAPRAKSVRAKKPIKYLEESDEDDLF
T1 sequence (Q12809 whole entry): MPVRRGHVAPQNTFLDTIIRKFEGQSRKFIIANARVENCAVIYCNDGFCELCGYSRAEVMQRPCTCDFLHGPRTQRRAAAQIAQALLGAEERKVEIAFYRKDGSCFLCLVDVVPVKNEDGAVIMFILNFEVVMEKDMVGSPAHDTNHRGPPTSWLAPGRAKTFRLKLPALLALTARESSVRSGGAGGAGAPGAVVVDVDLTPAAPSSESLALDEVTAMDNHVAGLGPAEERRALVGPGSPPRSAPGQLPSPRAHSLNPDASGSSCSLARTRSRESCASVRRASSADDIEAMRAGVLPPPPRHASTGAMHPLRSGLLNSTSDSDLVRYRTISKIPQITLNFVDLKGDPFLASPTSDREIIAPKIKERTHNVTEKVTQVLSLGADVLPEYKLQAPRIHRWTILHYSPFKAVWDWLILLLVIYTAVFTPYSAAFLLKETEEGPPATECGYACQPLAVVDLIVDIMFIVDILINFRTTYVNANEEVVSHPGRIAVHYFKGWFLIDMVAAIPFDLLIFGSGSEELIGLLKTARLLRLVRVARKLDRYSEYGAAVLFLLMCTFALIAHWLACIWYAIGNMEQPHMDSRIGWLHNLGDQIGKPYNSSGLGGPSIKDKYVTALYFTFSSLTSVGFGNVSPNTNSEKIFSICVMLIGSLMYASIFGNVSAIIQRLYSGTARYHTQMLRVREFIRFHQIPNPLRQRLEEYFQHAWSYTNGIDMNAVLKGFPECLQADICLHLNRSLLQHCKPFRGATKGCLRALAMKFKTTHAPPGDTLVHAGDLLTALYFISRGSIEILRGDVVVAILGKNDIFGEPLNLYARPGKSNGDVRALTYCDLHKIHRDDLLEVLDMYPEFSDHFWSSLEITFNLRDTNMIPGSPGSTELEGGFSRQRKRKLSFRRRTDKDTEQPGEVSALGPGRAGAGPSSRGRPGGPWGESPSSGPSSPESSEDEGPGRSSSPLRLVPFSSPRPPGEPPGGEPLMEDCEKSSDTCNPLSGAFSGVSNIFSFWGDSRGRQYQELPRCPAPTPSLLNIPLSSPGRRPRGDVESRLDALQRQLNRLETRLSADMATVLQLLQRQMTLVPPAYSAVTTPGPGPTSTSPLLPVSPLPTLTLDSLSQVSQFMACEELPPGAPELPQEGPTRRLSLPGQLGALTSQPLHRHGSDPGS

Cc1[nH]c(C(=O)Nc2nc3c(OC(CN4CC[N+](C)(C)CC4)c4ccccc4)cc(C(=O)O)cc3s2)c(Cl)c1Cl (stereo not drawn)
MIC90 [1]: 0.63 µM | MIC90 [2]: 0.32 µM | Activity [3]: inactive | MIC90 [4]: 0.31 µM

Cc1[nH]c(C(=O)Nc2nc3c(OCc4ccccc4)cc(C(=O)O)cc3s2)c(Cl)c1Cl
Activity [5]: inactive | IC50 [6]: 5.1 nM

Cc1[nH]c(C(=O)Nc2nc3c(OC(CN4CCC(N(C)C)CC4)c4ccccc4)cc(C(=O)O)cc3s2)c(Cl)c1Cl (stereo not drawn)
MIC90 [1]: 2.5 µM (≈ 1.54 µg/mL) | MIC90 [2]: 5 µM (≈ 3.08 µg/mL) | MIC90 [4]: 10 µM (≈ 6.17 µg/mL)

Cc1[nH]c(C(=O)Nc2nc3c(OC(CN4CCOCC4)c4ccccc4)cc(C(=O)O)cc3s2)cc1F (stereo not drawn)
MIC90 [1]: 2.5 µM (≈ 1.31 µg/mL) | MIC90 [2]: 10 µM (≈ 5.25 µg/mL) | Activity [3]: inactive | MIC90 [4]: > 40 µM

Cc1[nH]c(C(=O)Nc2nc3c(OC(CN)c4ccccc4)cc(C(=O)O)cc3s2)c(Cl)c1Cl (stereo not drawn)
MIC90 [1]: 0.63 µM (≈ 0.318 µg/mL) | MIC90 [2]: 1.25 µM (≈ 0.632 µg/mL) | MIC90 [4]: 1.25 µM (≈ 0.632 µg/mL)

Cc1[nH]c(C(=O)Nc2nc3c(OC(CN4CCN(C)CC4)C4CC4)cc(C(=O)O)cc3s2)c(Cl)c1Cl (stereo not drawn)
MIC90 [1]: 0.63 µM (≈ 0.348 µg/mL) | Activity [7]: 99% | Activity [8]: 99% | MIC90 [2]: 0.63 µM (≈ 0.348 µg/mL) | MIC90 [9]: > 116 µM | MIC90 [3]: 14 µM (≈ 7.73 µg/mL) | MIC90 [10]: > 116 µM | MIC90 [11]: > 116 µM | MIC90 [12]: > 116 µM | MIC90 [13]: 7 µM (≈ 3.87 µg/mL) | MIC90 [4]: 5 µM (≈ 2.76 µg/mL)

Cc1[nH]c(C(=O)Nc2nc3c(OC(C)CN(C)C)cc(C(=O)O)cc3s2)c(Cl)c1Cl (stereo not drawn)
MIC90 [1]: 0.63 µM (≈ 0.297 µg/mL) | Activity [14]: Non-Toxic | Activity [15]: Dose-Dependent Effect | MIC [16]: > 20 µM | fraction unbound at 4 h, 10 µM [17]: 0.029 | fraction unbound at 4 h, 10 µM [18]: 0.047 | Activity [19]: Non-Toxic | MIC [20]: > 20 µM | Activity [21]: Non-Toxic | MIC90 [2]: 0.63 µM (≈ 0.297 µg/mL) | MIC [22]: > 20 µM | MIC90 [9]: > 135 µM | MIC90 [3]: > 135 µM | solubility kinetic at 20 h, 100 µM [23]: 55 µM (≈ 25.9 µg/mL) | Activity [24]: inactive | MIC90 [10]: > 135 µM | MIC90 [11]: > 135 µM | MIC90 [12]: > 135 µM | MIC90 [13]: 8 µM (≈ 3.77 µg/mL) | MIC90 [25]: 2 µM (≈ 0.943 µg/mL) | Activity [26]: Non-Toxic | Activity [27]: 34% | MIC90 [4]: 2.5 µM (≈ 1.18 µg/mL)

Cc1[nH]c(C(=O)Nc2nc3c(OC4CCNC4)cc(C(=O)O)cc3s2)c(Cl)c1Cl (stereo not drawn)
MIC90 [1]: 10 µM (≈ 4.55 µg/mL) | Activity [7]: 102% | Activity [8]: 102% | MIC90 [2]: > 20 µM | MIC90 [9]: > 130 µM | MIC90 [3]: > 130 µM | MIC90 [10]: 130 µM (≈ 59.2 µg/mL) | MIC90 [11]: > 130 µM | MIC90 [13]: > 130 µM | MIC90 [25]: 130 µM (≈ 59.2 µg/mL) | MIC90 [4]: 2.5 µM (≈ 1.14 µg/mL)

Cc1[nH]c(C(=O)Nc2nc3c(OC(CN(C)C)c4ccccc4)cc(C(=O)O)cc3s2)c(Cl)c1Cl (stereo not drawn)
MIC90 [1]: 0.63 µM (≈ 0.336 µg/mL) | MIC90 [2]: 0.16 µM (≈ 0.0853 µg/mL) | MIC90 [4]: 1.25 µM (≈ 0.667 µg/mL)

Cc1[nH]c(C(=O)Nc2nc3c(OC(C)C4CCNCC4)cc(C(=O)O)cc3s2)c(Cl)c1Cl (stereo not drawn)
MIC90 [1]: 2.5 µM (≈ 1.24 µg/mL) | Activity [14]: Non-Toxic | Activity [15]: Dose-Dependent Effect | IC50 [28]: < 10 nM | MIC [16]: > 20 µM | Activity [7]: 96% | Activity [29]: Active | IC50 [30]: 99 nM | Activity [8]: 96% | Activity [19]: Non-Toxic | MIC [20]: > 20 µM | Activity [21]: Non-Toxic | MIC90 [2]: 2.5 µM (≈ 1.24 µg/mL) | inhibition at 10 µM [31]: 4.2% | MIC [22]: > 20 µM | inhibition at 50 µM [32]: 29% | MIC90 [9]: > 120 µM | IC50 [33]: 5.7 nM | MIC90 [3]: > 120 µM | solubility kinetic at 20 h, 100 µM [23]: 1 µM (≈ 0.497 µg/mL) | Activity [34]: 81% | IC50 [35]: 4.1 nM | MIC90 [10]: > 120 µM | MIC90 [11]: > 120 µM | MIC90 [13]: > 120 µM | MIC90 [25]: 2 µM (≈ 0.995 µg/mL) | Activity [26]: Non-Toxic | Activity [27]: Non-Toxic | MIC90 [4]: 0.63 µM (≈ 0.313 µg/mL)
